Laboratory results published in patent publication US20210261539A1, “COMPOUND HAVING BET INHIBITORY ACTIVITY AND PREPARATION METHOD AND USE THEREFOR” (Shanghai Haihe Pharmaceutical Co., Ltd., priority 2018, published 2021).

molecular target: T1, BRD4 BD1 (Homo sapiens, UniProt O60885); assay: HTRF in vitro enzyme activity assay, inhibition of BRD4 BD1 binding to acetylated H4 peptide; conditions: IC50 values of the compounds against BRD4 BD1 binding; class symbols A/B/C
T1 construct: Protein BRD4 BD1 used in the assay was purchased from Active Motif (cat. 31380); purchased Active Motif 31380
Procedure, shortened: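 Recombinant human BRD4 BD1 (30 nM final) incubated with compound and biotinylated tetra-acetylated H4(1-21) peptide, 30 min at 37 °C; 5-point 1:5 dilution series, 0.1% DMSO final. HTRF read after 3 h at RT with SA-XL665 and Eu(K)-labelled antibody; IC50 derived.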

Row | IC50 | SMILES
1 | ≤ 10 nM | CC1C(=O)N(C)c2ccc(N3C(=O)c4ccccc4C3c3ccncc3)nc2N1C1CC1 (centres unmarked) [Example A58-P1, 4-cyclopropyl-1,3-dimethyl-6-(1-oxo-3-(pyridin-4-yl)isoindolin-2-yl)-3,4-dihydropyrido[2,3-b]pyrazin-2(1H)-one]
2 | ≤ 10 nM | CC1C(=O)N(C)c2cnc(N3C(=O)c4ccccc4C3c3ccc(F)nc3)nc2N1C1CC1 (single isomer, unassigned) [Example A101-P3, 8-cyclopropyl-2-(1-(6-fluoropyridin-3-yl)-3-oxoisoindol-2-yl)-5,7-dimethyl-7,8-dihydropteridin-6(5H)-one]
3 | ≤ 10 nM | CC1C(=O)N(C)c2ccc(N3C(=O)c4c(cccc4[S+](C)[O-])C3c3cccnc3)nc2N1C1CC1 (single isomer, unassigned) [Example A60-P3]
4 | ≤ 10 nM | C[C@@H]1C(=O)N(C)c2ccc(N3C(=O)c4c(C(=O)NC5CC5)cccc4C3c3ccc(F)cc3)nc2N1C (stereo partly drawn) [Example A86-P3, N-cyclopropyl-1-(4-fluorophenyl)-3-oxo-2-((R)-1,3,4-trimethyl-2-oxo-1,2,3,4-tetrahydropyrido[2,3-b]pyrazin-6-yl)isoindoline-4-carboxamide]
5 | ≤ 10 nM | C[C@@H]1C(=O)N(C)c2cnc(N3C(=O)c4c(cccc4C(C)(C)O)C3c3ccc(F)cc3)nc2N1C1CC1 (stereo partly drawn) [Example A94-P4, (7R)-8-cyclopropyl-2-(3-oxo-1-(4-fluorophenyl)-4-(2-hydroxyprop-2-yl)isoindolin-2-yl)-5,7-dimethyl-7,8-dihydropteridin-6(5H)-one]
6 | 10 to 100 nM | CC1C(=O)N(C)c2ccc(N3C(=O)c4ccccc4C3(O)c3ccc(Cl)cc3)nc2N1C1CC1 (racemic) [Example A30, 6-(1-(4-chlorophenyl)-1-hydroxy-3-oxoisoindolin-2-yl)-4-cyclopropyl-1,3-dimethyl-3,4-dihydropyrido [3,2-b]pyrazin-2(H)-one]
7 | ≤ 10 nM | CC[S+]([O-])c1cccc2c1C(=O)N(c1ccc3c(n1)N(C1CC1)C(C)C(=O)N3C)C2c1cccnc1 (centres unmarked) [Example A73, 4-cyclopropyl-6-(4-(ethylsulfinyl)-3-oxo-1-(pyridin-3-yl)isoindolin-2-yl)-1,3-dimethyl-3,4-dihydropyrido[2,3-b]pyrazin-2(1H)-one]
8 | ≤ 10 nM | CC1C(=O)N(C)c2ccc(N3C(=O)N(C)CC3c3ccccc3)nc2N1C1CC1 (single isomer, unassigned) [Example A19-P3, 4-cyclopropyl-1,3-dimethyl-6-(3-methyl-2-oxo-5-phenylimidazolidin-1-yl)-3,4-dihydropyrido[2,3-b]pyrazin-2(1H)-one]
9 | ≤ 10 nM | CC1C(=O)N(C)c2c(F)cc(N3C(=O)c4ccccc4C3c3cccnc3)cc2N1C1CC1 (single isomer, unassigned) [Example A71-P4, 4-cyclopropyl-8-fluoro-1,3-dimethyl-6-(1-oxo-3-(pyridin-3-yl)isoindolin-2-yl)-3,4-dihydroquinoxalin-2(1H)-one]
10 | ≤ 10 nM | CC1C(=O)N(CC(F)F)c2ccc(N3C(=O)c4ccccc4C3c3cccnc3)nc2N1C1CC1 (centres unmarked) [Example A53-P4, 4-cyclopropyl-1-(2,2-difluoroethyl)-3-methyl-6-(1-oxo-3-(pyridin-3-yl)isoindolin-2-yl)-3,4-dihydropyrido [2,3-b]pyrazin-2(1H)-one]
11 | ≤ 10 nM | CC1C(=O)N(C)c2cnc(N3C(=O)c4ccccc4C3c3ccc(F)nc3)nc2N1C1CC1 (centres unmarked) [A99-P3/P4, 8-cyclopropyl-2-(1-(6-fluoropyridin-3-yl)-3-oxoisoindol-2-yl)-5,7-dimethyl-7,8-dihydropteridin-6(5H)-one]
12 | ≤ 10 nM | CC1C(=O)N(C)c2ccc(N3C(=O)c4sccc4C3c3cccnc3)nc2N1C1CC1 (single isomer, unassigned) [Example A72-P4, 5-(4-cyclopropyl-1,3-dimethyl-2-oxo-1,2,3,4-tetrahydropyrido[2,3-b]pyrazin-6-yl)-4-(pyridin-3-yl)-4,5-dihydro-6H-thieno[2,3-c]pyrrol-6-one]
13 | ≤ 10 nM | COC(=O)c1cccc2c1C(=O)N(c1ccc3c(n1)N(C1CC1)C(C)C(=O)N3C)C2c1ccc(F)cc1 (single isomer, unassigned) [Example A80-P3, Methyl 2-(4-cyclopropyl-1,3-dimethyl-2-oxo-1,2,3,4-tetrahydropyrido[2,3-b]pyrazin-6-yl)-1-(4-fluorophenyl)-3-oxoisoindoline-4-carboxylate]
14 | ≤ 10 nM | CC(C)N1c2nc(N3C(=O)c4ccccc4C3c3cccnc3)ccc2N(C)C(=O)C1C (centres unmarked) [Example A57-P3]
15 | ≤ 10 nM | CC1C(=O)N(C)c2ccc(N3C(=O)c4c(C(=O)N5CCN(C)CC5)cccc4C3c3ccc(F)cc3)nc2N1C1CC1 (single isomer, unassigned) [Example A82-P4]
16 | ≤ 10 nM | C[C@H]1Oc2nc(N3C(=O)c4ccccc4C3c3cccnc3)ccc2N(C)C1=O (stereo partly drawn) [Example A33-P1, (R)-1,3-dimethyl-6-(1-oxo-3-(pyridin-3-yl)isoindolin-2-yl)-1H-pyrido[2,3-B][1,3]oxazin-2(3H)-one]
17 | 10 to 100 nM | C[C@H]1Oc2nc(N3C(=O)c4ccccc4C3c3cccnc3)c(F)cc2N(C)C1=O (single isomer, unassigned) [Example A124-P1]
18 | ≤ 10 nM | Cc1ccc(C2c3ccccc3C(=O)N2c2ccc3c(n2)O[C@H](C)C(=O)N3C)cn1 (single isomer, unassigned) [Example A112-P1]

Row | IC50 | SMILES
19 | ≤ 10 nM | CC1C(=O)N(C)c2ccc(N3C(=O)c4cc(C(=O)N5CCN(C)CC5)ccc4C3c3ccc(F)cc3)nc2N1C1CC1 (single isomer, unassigned) [Example A78-P4, 4-cyclopropyl-6-(1-(4-fluorophenyl)-5-(4-methylpiperazine-1-carbonyl)-3-oxoisoindolin-2-yl)-1,3-dimethyl-3,4-dihydropyrido[2,3-b]pyrazin-2(1H)-one]
20 | 10 to 100 nM | CC1Oc2nc(-n3c(=O)c4ccccc4n3-c3ccc(Cl)cc3)ccc2N(C)C1=O (centres unmarked) [Example A32-P3, 6-(1-(4-chlorophenyl)-3-oxo-1,3-dihydro-2H-indazol-2-yl)-1,3-dimethyl-1H-pyrido[2,3-B][1,4]oxazin-2(3H)-one]
21 | ≤ 10 nM | CC1C(=O)N(C)c2ccc(N3C(=O)c4ccccc4C3c3ccc(F)nc3)nc2N1C1CC1 (single isomer, unassigned) [Example A67-P3, 4-cyclopropyl-1,3-dimethyl-6-(1-oxo-3-(6-fluoropyridin-3-yl)isoindolin-2-yl)-3,4-dihydropyrido[3,2-b]pyrazin-2-(1H)-one]
22 | ≤ 10 nM | CC1C(=O)N(C)c2ccc(N3C(=O)c4c(cccc4S(C)(=O)=O)C3c3cccnc3)nc2N1C1CC1 (single isomer, unassigned) [Example A64-P3, 4-cyclopropyl-1,3-dimethyl-6-(4-(methanesulfonyl)-3-oxo-1-(pyridin-3-yl)isoindolin-2-yl)-3,4-dihydropyrido[2,3-b]pyrazin-2(1H)-one]
23 | ≤ 10 nM | C[C@@H]1C(=O)N(C)c2ccc(N3C(=O)c4c(cccc4[S+](C)[O-])C3c3cccnc3)nc2N1C (single isomer, unassigned) [Example A63-P3]
24 | ≤ 10 nM | C[C@H]1Oc2nc(N3C(=O)c4ccccc4C3c3ccc(F)cn3)ccc2N(C)C1=O (single isomer, unassigned) [Example A110-P1]
25 | ≤ 10 nM | CC1C(=O)N(C)c2ccc(N3C(=O)c4ccccc4C3c3ccccc3)nc2N1C1CC1 (single isomer, unassigned) [Example A11-P3, 4-cyclopropyl-1,3-dimethyl-6-(1-oxo-3-phenylisoindolin-2-yl)-3,4-dihydropyrido[2,3-b]pyrazin-2(1H)-one]
26 | ≤ 10 nM | CC1C(=O)N(C)c2ccc(N3C(=O)CCC3c3ccccc3)nc2N1C1CCCC1 (single isomer, unassigned) [Example A2-P2-2, 4-cyclopentyl-1,3-dimethyl-6-(2-oxo-5-phenylpyrrolidin-1-yl)-3,4-dihydropyrido[2,3-b]pyrazin-2(1H)-one]
27 | ≤ 10 nM | C[C@H]1Oc2nc(N3C(=O)c4ccccc4C3c3ccccn3)ccc2N(C)C1=O (single isomer, unassigned) [Example A121-P1]
28 | ≤ 10 nM | C[C@H]1Oc2nc(N3C(=O)c4ccccc4C3c3ccc(F)nc3)ccc2N(C)C1=O (single isomer, unassigned) [Example A111-P1]
29 | ≤ 10 nM | C[C@@H]1C(=O)N(C)c2ccc(N3C(=O)CCC3c3ccccc3)nc2N1C1CCOCC1 (single isomer, unassigned) [Example A5-P1]
30 | ≤ 10 nM | CC1C(=O)N(C)c2cnc(-n3c(=O)c4ccccc4n3-c3ccc(Cl)cc3)nc2N1C1CC1 (single isomer, unassigned) [Compound A89-P3]
31 | ≤ 10 nM | CC1C(=O)N(C)c2ccc(-n3c(=O)c4ccccc4n3-c3ccc(C#N)cc3)nc2N1C1CC1 (centres unmarked) [Example A27-P1, 6-(1-(4-cyanophenyl)-3-oxo-1,3-dihydro-2H-indazol-2-yl)-4-cyclopropyl-1,3-dimethyl-3,4-dihydropyrido [2,3-b]pyrazin-2(1H)-one]
32 | 100 to 1000 nM | CC1C(=O)N(C)c2ccc(N3C(=O)c4ccccc4C3Cc3ccccc3)nc2N1C1CC1 (racemic) [Example A37, 4-cyclopropyl-6-(1-benzyl-3-oxoisoindolin-2-yl)-1,3-dimethyl-3,4-dihydropyrido [2,3-b]pyrazin-2(1H)-one]
33 | ≤ 10 nM | C[C@@H]1C(=O)N(C)c2ccc(N3C(=O)c4c(cccc4[S+](C)[O-])C3c3cccnc3)nc2N1C (single isomer, unassigned) [Example A63-P4]
34 | 10 to 100 nM | C[C@H]1Oc2nc(N3C(=O)c4ccccc4C3c3ccc(Cl)nc3)ccc2N(C)C1=O (single isomer, unassigned) [Example A122-P1]
35 | ≤ 10 nM | C[C@@H]1C(=O)N(C)c2cnc(N3C(=O)c4cc(F)ccc4C3c3cccnc3)nc2N1C (single isomer, unassigned) [Example A97-P1]
